Several values for one entry are separate records, joined by “and”; a condition that tells them apart may be missing. Equal values may be shown once.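 Briefly, cells in 96-well plates were exposed to five compound concentrations for 48 h, and endpoints were estimated by linear interpolation. GI50: concentration for 50% inhibition of growth. TGI: total growth inhibition.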
Columns and labels:
Assay in all cases: NCI-60 cell line screen, 48 h
A549 NSCLC = test system: A549 NSCLC
HT29 colon = test system: HT29 colon
MDA-MB-231 breast = test system: MDA-MB-231 breast
OVCAR-4 ovarian = test system: OVCAR-4 ovarian
PC-3 prostate = test system: PC-3 prostate
SF-539 CNS = test system: SF-539 CNS
SK-MEL-2 melanoma = test system: SK-MEL-2 melanoma
SK-MEL-5 melanoma = test system: SK-MEL-5 melanoma
T-47D breast = test system: T-47D breast
TK-10 renal = test system: TK-10 renal

SMILES | GI50 (A549 NSCLC) | TGI (A549 NSCLC) | GI50 (HT29 colon) | TGI (HT29 colon) | GI50 (MDA-MB-231 breast) | TGI (MDA-MB-231 breast) | GI50 (OVCAR-4 ovarian) | GI50 (PC-3 prostate) | TGI (PC-3 prostate) | GI50 (SF-539 CNS) | TGI (SF-539 CNS) | GI50 (SK-MEL-2 melanoma) | TGI (SK-MEL-2 melanoma) | GI50 (SK-MEL-5 melanoma) | TGI (SK-MEL-5 melanoma) | GI50 (T-47D breast) | TGI (T-47D breast) | GI50 (TK-10 renal) | TGI (TK-10 renal) | TGI (OVCAR-4 ovarian)
Cc1cc2nc3ccc(=[N+](C)C)cc-3sc2cc1N | 0.336 µM and 0.381 µM | 1.75 µM and 13.9 µM and 11.2 µM | 2.09 µM and 2.87 µM | 5.45 µM and 22.8 µM and 9.44 µM | 0.739 µM and 0.284 µM | 7.51 µM and 7.94 µM and 1.33 µM | 0.21 µM and 0.146 µM | 0.121 µM and 0.173 µM | 2.65 µM and 7.2 µM and 3.43 µM | 0.343 µM and 0.349 µM | 1.64 µM and 8.97 µM and 1.55 µM | 1.31 µM and 2.26 µM | 5.62 µM and 17 µM and 8.27 µM | 0.145 µM and 0.284 µM | 0.324 µM and 1.81 µM and 1.33 µM | 0.475 µM and 0.722 µM | 4.52 µM and 28.8 µM and 6.75 µM | 2.65 µM and 2.75 µM | 7.01 µM and 36.8 µM and 8.19 µM | –
C=C1COC(O)(C2OCOC(C3CC(=O)NC(=O)C3)C2O)C1C (stereo not given) | 0.00282 µM | 0.0303 µM and 0.0326 µM | – | 0.0207 µM and 0.0511 µM | – | 0.0328 µM | – | 0.00629 µM | 0.0501 µM | 0.00165 µM | 0.0064 µM and 0.00602 µM | 0.00243 µM | 0.00927 µM and 0.0446 µM | 0.00166 µM | 0.00459 µM and 0.00385 µM | 0.00457 µM | – | 0.00456 µM | 0.0539 µM and 0.0498 µM | 0.0181 µM and 0.0242 µM
CN(C)CCC=C1c2ccccc2C(C)(C)c2ccccc21 | 15.8 µM | 32 µM | 3.06 µM | 13.6 µM | 13.8 µM | 28.8 µM | 12.5 µM | 10.4 µM | 24.3 µM | 10.4 µM | 22.2 µM | 6.26 µM | 22.1 µM | 1.9 µM | 5.09 µM | 11.5 µM | 27.4 µM | 18.4 µM | 37 µM | 26.6 µM
CCCCCc1cc[n+](CC(=O)c2ccc([N+](=O)[O-])cc2)cc1 | 4.39 µM | 15 µM | 2.39 µM | 8.32 µM | 6.46 µM | 35.7 µM | 2.53 µM | 4.14 µM | 34.7 µM | 20.3 µM | 72.1 µM | 2.7 µM | 8.66 µM | 1.95 µM | 4.56 µM | 6.02 µM | 28.2 µM | 9.65 µM | 33.7 µM | 13.1 µM
CC(=O)c1ccc(Nc2nc(Nc3ccc(F)cc3)nc(Nc3ccc(F)cc3)n2)cc1 | 5.81 µM | 32.5 µM | 5.79 µM | > 100 µM | 6.81 µM | 42.8 µM | 10.9 µM | 8.89 µM | > 100 µM | 3.07 µM | 12.1 µM | 10.1 µM | 40.3 µM | 7.07 µM | 35.8 µM | 4.77 µM | 65.2 µM | 15.6 µM | 42.2 µM | 41.3 µM
CN1CC[C@]2(c3cccc(O)c3)CC(=O)/C(=C/c3ccccc3)[C@H]1C2 | – | 11.1 µM | 3.59 µM | 12.4 µM | – | 8.08 µM | – | 3.22 µM | 12.9 µM | – | 5.2 µM | 3.28 µM | 12.6 µM | – | 9.35 µM | 2.57 µM | 7.44 µM | 6.32 µM | 13.2 µM | 11 µM
CCC(CCC(C)C1CCC2C3CC=C4CC(OC5OC(CO)C(O)C(O)C5O)CCC4(C)C3CCC12C)C(C)C (stereo not given) | – | > 100 µM | – | > 100 µM | – | > 100 µM | – | – | > 100 µM | – | > 100 µM | – | > 100 µM | – | > 100 µM | – | > 100 µM | – | > 100 µM | > 100 µM
